In assay [1] the test system is C. elegans. Briefly: microbe, parasite or virus in culture. Conditions: Caenorhabditis elegans.
Assay [2] concerns C. elegans.
The mark [3] stands for this setting: 0 h, read-out: Percentage of motility inhibition 0 h, Table S2, C. elegans SS assay, 110 μM, 0 h, averages of 4 data points.
Where [4] appears, read: 24 h, read-out: Percentage of motility inhibition 24 h, Table S2, C. elegans SS assay, 110 μM, 24 h, averages of 4 data points.
[5] abbreviates: 0 h, read-out: Percentage of motility inhibition 0 h.
The mark [6] stands for this setting: 24 h, read-out: Percentage of motility inhibition 24 h.
The mark [7] stands for this setting: Table S2, C. elegans SS assay, 110 μM, 0 h, averages of 4 data points.
Where [8] appears, read: Table S2, C. elegans SS assay, 110 μM, 24 h, averages of 4 data points.

Structures can show the parent of a compound that is named as a salt. Where two headings read alike, the source gives them in different places. *1 amine or outer side, *2 acyl side, *3 side chain or, on linkers, in order; H or OH if unused. Where a SMILES comes first, the peptide text is derived from it. Bridges are numbered along the chain shown (N, C = ends). [ ]: non-standard residue; d: D form. The star is where a group is joined. pTerphenylCO(4''-OnC5H11) = CCCCCOc1ccc(-c2ccc(-c3ccc(C(=O)*)cc3)cc2)cc1; Orn(4R-OH,5R-OH) = O=C([C@H](C[C@@H](O)[C@@H](O)N[*:3])N[*:1])[*:2]; hTyr(3S-OH,4S-OH) = N[C@H](C(=O)O)[C@H](O)[C@@H](O)c1ccc(O)cc1; Pro(3S-OH,4S-Me) = C[C@H]1CN[C@H](C(=O)O)[C@H]1O; Hyp = O=C(O)[C@@H]1C[C@@H](O)CN1

By inhibition is commonly meant the share of the control response that was lost under treatment. `O=C1C[C@@H](c2ccc(O[C@@H]3O[C@H](CO)[C@@H](O)[C@H](O)[C@H]3O)cc2)Oc2cc(O)ccc21` [Liquiriti n]: the inhibition at 110 µM in the assay with C. elegans [1] (setting [3]) was 45%; with C. elegans [1] (setting [4]), 14%.
For `C=C1C[C@@]23CC[C@H]4[C@@](C)(CCC[C@@]4(C)C(=O)O[C@@H]4O[C@H](CO)[C@@H](O)[C@H](O)[C@H]4O)[C@@H]2CC[C@]1(O[C@@H]1O[C@H](CO)[C@@H](O)[C@H](O)[C@H]1O)C3` [Rubusoside], in that order: 0% and 18%.
For `C[C@H](Cc1ccc(O)c(O)c1)[C@@H](C)Cc1ccc(O)c(O)c1` [Masoprocol], in that order: 7% and 17%.
Regarding `COc1cc(C=O)cc(OC)c1O` [Syringaldehyde], the inhibition at 110 µM was 4% in the assay on C. elegans [1] (setting [5]) and 3% with C. elegans [1] (setting [6]).
For `CC(C)CN(C[C@@H](O)[C@H](Cc1ccccc1)NC(=O)O[C@H]1CO[C@H]2OCC[C@H]21)S(=O)(=O)c1ccc(N)cc1` [Darunavir], in that order: 39% and 26%.
In the case of `COc1cc(O)c2c(c1)O[C@H](c1ccc(O)cc1)CC2=O` [Sakuranetin], the inhibition at 110 µM came out at 19% in the assay on C. elegans [1] (setting [3]) and 18% in the assay on C. elegans [1] (setting [4]).
On to `CCCCCOc1ccc(-c2ccc(-c3ccc(C(=O)N[C@H]4C[C@@H](O)[C@@H](O)NC(=O)[C@@H]5[C@@H](O)[C@@H](C)CN5C(=O)[C@H]([C@@H](C)O)NC(=O)[C@H]([C@H](O)[C@@H](O)c5ccc(O)cc5)NC(=O)[C@@H]5C[C@@H](O)CN5C(=O)[C@H]([C@@H](C)O)NC4=O)cc3)cc2)cc1` [Anidulafungin] ({pTerphenylCO(4''-OnC5H11)}-[Orn(4R-OH,5R-OH)]T[Hyp][hTyr(3S-OH,4S-OH)]T[Pro(3S-OH,4S-Me)]; lactam 1-C), for which the inhibition at 110 µM in the assay with C. elegans [1] (setting [3]) came to 54%; with C. elegans [1] (setting [4]), 61%.
For `C[C@@]12C[C@@]3(O)O[C@@H](O1)[C@]1(COC(=O)c4ccccc4)[C@H]3C[C@@]12O[C@@H]1O[C@H](COC(=O)c2ccccc2)[C@@H](O)[C@H](O)[C@H]1O` [Benzoylpaeoniflorin], in that order: 10% and 0%.
For `Nc1nc(=O)n([C@@H]2CS[C@H](CO)O2)cc1F` [Emtricitabine], in that order: 26% and 32%.
As for `COc1ccc(-c2coc3cc(OC)ccc3c2=O)cc1` [4',7‐Dimetho xyisoflavone], the “Percentage of motility inhibition 0 h” value with C. elegans [2] (setting [7]) worked out at 21%. For the same compound, the “Percentage of motility inhibition 24 h” value with C. elegans [2] (setting [8]) is 27%.
Regarding `C=CC1=C(C)/C(=C/C2=NC(=C\c3[nH]c(/C=C4\NC(=O)C(C)=C4C=C)c(C)c3CCC(=O)O)/C(CCC(=O)O)=C2C)NC1=O` [Biliverdin (hydrochloride)], the “Percentage of motility inhibition 0 h” value in the assay with C. elegans [2] (setting [7]) is reported as 0%. In the assay on C. elegans [2] (setting [8]), the “Percentage of motility inhibition 24 h” value is recorded as 1%.
Take `CC1(C)CC[C@]2(C(=O)O)CC[C@]3(C)C(=CC[C@@H]4[C@@]5(C)C[C@H](O)[C@H](O)[C@@](C)(C(=O)O)[C@@H]5CC[C@]43C)[C@@H]2C1` [Medicagenic acid]: in the assay with C. elegans [2] (setting [7]), the “Percentage of motility inhibition 0 h” value is 0%. The “Percentage of motility inhibition 24 h” value in the assay on C. elegans [2] (setting [8]) is listed as 5%.
For `CC(C)=CC1CC(O)(C2CCC3(C)C2CCC2C4(C=O)CCC(OC5OCC(O)C(OC6OCC(O)C(O)C6O)C5OC5OC(C)C(O)C(O)C5O)C(C)(C)C4CCC23C)C(O)O1` (stereo not shown) [Gypenoside A], in that order: 0% and 0%.
For `CNc1ccccc1C(=O)OC` [Methyl N‐methylanthranilate], in that order: 30% and 4%.
With `CCN(CC)c1nc2c(S(=O)(=O)c3ccc(Cl)cc3)nnn2c2cc(OC)c(OC)cc12` [Targocil], in the assay on C. elegans [2] (setting [7]), the “Percentage of motility inhibition 0 h” value is given as 21%. The “Percentage of motility inhibition 24 h” value in the assay on C. elegans [2] (setting [8]) was 11%.
As to `CSCCC(=O)O` [3‐(Methylthio)propionic acid], the “Percentage of motility inhibition 0 h” value in the assay on C. elegans [2] (setting [7]) was 9%. Further, in the assay with C. elegans [2] (setting [8]), the “Percentage of motility inhibition 24 h” value is reported as 0%.
For Cucurbitacin B, the “Percentage of motility inhibition 0 h” value in the assay on C. elegans [2] (setting [7]) was determined as 5%. Besides, the “Percentage of motility inhibition 24 h” value with C. elegans [2] (setting [8]) was determined as 0%.
For `COc1ccc2c(c1O)-c1c(O)c(OC)cc3c1[C@H](C2)[N+](C)(C)CC3.[I-]` [(+)‐Magnoflorine (iodide)], in that order: 10% and 8%.
For the compound `c1cncc([C@@H]2CCCCN2)c1` (racemic) [(±) Anabasine], the “Percentage of motility inhibition 0 h” value in the assay with C. elegans [2] (setting [7]) is 3%. For the same compound, in the assay with C. elegans [2] (setting [8]), the “Percentage of motility inhibition 24 h” value stood at 0%.
For `CC1(C)CC[C@]2(C(=O)O)CC[C@]3(C)C(=CC[C@@H]4[C@@]5(C)CC[C@H](O[C@@H]6OC[C@H](O)[C@H](O)[C@H]6O[C@@H]6O[C@H](CO)[C@@H](O)[C@H](O)[C@H]6O)[C@@](C)(CO)[C@@H]5CC[C@]43C)[C@@H]2C1` [Cauloside C], in that order: 0% and 10%.
`C=C(CC[C@@H](C)[C@H]1CC[C@@]2(C)[C@@H]3CC[C@H]4C(C)(C)[C@@H](OC(=O)/C=C/c5ccc(O)c(OC)c5)CC[C@@]45C[C@@]35CC[C@]12C)C(C)C` [24-Methylenecycloartanyl ferulate]: in the assay with C. elegans [2] (110 µM), the “Percentage of motility inhibition 0 h” value stood at 0% and the “Percentage of motility inhibition 24 h” value was determined as 11%.
Regarding `COc1cc(-c2oc3cc(O)cc(O)c3c(=O)c2O[C@@H]2O[C@H](CO[C@@H]3O[C@@H](C)[C@H](O)[C@@H](O)[C@H]3O)[C@@H](O)[C@H](O)[C@H]2O[C@@H]2O[C@@H](C)[C@H](O)[C@@H](O)[C@H]2O)ccc1O` [Typhaneoside], the “Percentage of motility inhibition 0 h” value with C. elegans [2] (setting [7]) is 26%. Moreover, the “Percentage of motility inhibition 24 h” value in the assay on C. elegans [2] (setting [8]) worked out at 15%.
For the compound `O.O=C(O)c1cc(O)c(O)c(O)c1` [Gallic acid (hydrate)], in the assay on C. elegans [2] (setting [7]), the “Percentage of motility inhibition 0 h” value amounted to 6%. Besides, the “Percentage of motility inhibition 24 h” value with C. elegans [2] (setting [8]) is given as 7%.
For `CCn1cc(C(=O)O)c(=O)c2cc(F)c(N3CCN(C)CC3)cc21.CS(=O)(=O)O` [Pefloxacin (mesylate)], in that order: 9% and 8%.
`C[C@@H]1O[C@@H](O[C@H]2[C@H](OC(=O)[C@]34CCC(C)(C)C[C@H]3C3=CC[C@@H]5[C@@]6(C)C[C@H](O)[C@H](O[C@@H]7O[C@H](CO)[C@@H](O)[C@H](O)[C@H]7O)[C@@](C)(CO)[C@@H]6CC[C@@]5(C)[C@]3(C)CC4)O[C@H](CO)[C@@H](O)[C@@H]2O)[C@H](O)[C@H](O)[C@H]1O[C@@H]1OC[C@@H](O)[C@H](O)[C@H]1O` [Polygalasaponin F]: the “Percentage of motility inhibition 0 h” value in the assay with C. elegans [2] (setting [7]) is 5%. The “Percentage of motility inhibition 24 h” value in the assay with C. elegans [2] (setting [8]) came to 0%.
For Phytol, the “Percentage of motility inhibition 0 h” value in the assay on C. elegans [2] (setting [7]) is on record as 13%. Moreover, the “Percentage of motility inhibition 24 h” value in the assay on C. elegans [2] (setting [8]) came to 5%.
For `CC(N)C12CC3CC(CC(C3)C1)C2.Cl` (stereo not shown) [Rimantadine (hydrochloride)], in that order: 45% and 25%.
`CCC(C)(C)c1ccc(CC(C)CN2C[C@@H](C)O[C@@H](C)C2)cc1.Cl` (stereo partly shown) [Amorolfine (hydrochloride)]: the “Percentage of motility inhibition 0 h” value in the assay on C. elegans [2] (setting [7]) amounted to 20%. Also, the “Percentage of motility inhibition 24 h” value in the assay with C. elegans [2] (setting [8]) was determined as 9%.
As to `COc1cc(/C=C/C(=O)O[C@@H]2[C@H](O[C@@H]3O[C@@H](C)[C@H](O)[C@@H](O)[C@H]3O)[C@@H](O[C@@H]3O[C@@H](C)[C@H](O[C@@H]4OC[C@@H](O)[C@H](O)[C@H]4O)[C@@H](O)[C@H]3O)[C@H](OC(=O)[C@]34CCC(C)(C)C[C@H]3C3=CC[C@@H]5[C@@]6(C)C[C@H](O)[C@H](O[C@@H]7O[C@H](CO)[C@@H](O)[C@H](O)[C@H]7O)[C@@](C)(C(=O)O)[C@@H]6CC[C@@]5(C)[C@]3(CO)CC4)O[C@@H]2C)cc(OC)c1OC` [Onjisaponin Z], in the assay with C. elegans [2] (setting [7]), the “Percentage of motility inhibition 0 h” value was determined as 4%. In addition, the “Percentage of motility inhibition 24 h” value in the assay on C. elegans [2] (setting [8]) came to 21%.
Consider Retrorsine, for which, in the assay on C. elegans [2] (setting [7]), the “Percentage of motility inhibition 0 h” value is on record as 28%. The “Percentage of motility inhibition 24 h” value with C. elegans [2] (setting [8]) is given as 9%.
Consider `C/C=C(\C)C(=O)OC1C[C@H]2CC[C@@H](C1)N2C` (stereo partly shown) [Tigloidin], for which the “Percentage of motility inhibition 0 h” value in the assay on C. elegans [2] (setting [7]) was found to be 0%. For the same compound, the “Percentage of motility inhibition 24 h” value with C. elegans [2] (setting [8]) is given as 0%.
Hosenkoside C: the “Percentage of motility inhibition 0 h” value with C. elegans [2] (setting [7]) turned out to be 0%. Moreover, in the assay with C. elegans [2] (setting [8]), the “Percentage of motility inhibition 24 h” value worked out at 5%.
As for `COC(=O)N[C@H](C(=O)N1CCC[C@H]1c1ncc(-c2ccc(-c3ccc(-c4cnc([C@@H]5CCCN5C(=O)[C@@H](NC(=O)OC)C(C)C)[nH]4)cc3)cc2)[nH]1)C(C)C.Cl.Cl` [Daclatasvir (dihydrochloride)], the “Percentage of motility inhibition 0 h” value with C. elegans [2] (setting [7]) turned out to be 39%. In addition, the “Percentage of motility inhibition 24 h” value in the assay with C. elegans [2] (setting [8]) is listed as 2%.
For `COc1cc(OC)c2c(=O)cc(-c3ccccc3)oc2c1` [5,7‐Dimethoxyflavone], in that order: 37% and 15%.
For `O=C1C[C@@H](c2ccc(O)cc2)Oc2cc(O)ccc21` [Liquiriti genin], in that order: 44% and 28%.
For `COc1cc(O)c2c(=O)cc(-c3ccc(OC)c(OC)c3)oc2c1` [7,3',4'‐Tri‐O‐methylluteolin], in that order: 13% and 21%.
Regarding `N[C@@H](CCC(=O)O)C(=O)[O-].[Na+]` [L-Glutamic acid (monosodium salt)], the “Percentage of motility inhibition 0 h” value in the assay on C. elegans [2] (setting [7]) is 1%. The “Percentage of motility inhibition 24 h” value in the assay on C. elegans [2] (setting [8]) is on record as 0%.
For `O=c1cc(-c2ccc(O)cc2)oc2c(C3O[C@H](CO)[C@@H](O[C@@H]4O[C@H](CO)[C@@H](O)[C@H](O)[C@H]4O)[C@H](O)[C@H]3O)c(O)cc(O)c12` (stereo partly shown) [4”‐O‐Glucosylvitexin], the “Percentage of motility inhibition 0 h” value with C. elegans [2] (setting [7]) is recorded as 0%. The “Percentage of motility inhibition 24 h” value in the assay on C. elegans [2] (setting [8]) was 0%.

These data come from publication PMC11855827, “High-Throughput Screening of Five Compound Libraries for Anthelmintic Activity and Toxicity Leads to the Discovery of Two Flavonoid Compounds” (International Journal of Molecular Sciences, 2025).
